{"source": "patent US20260015436A1", "about": "“ANTIBODIES FOR CHELATED RADIONUCLIDES” (Hoffmann-La Roche Inc., priority 2018, published 2026)", "key": {"LS174T tumors": {"test_system": "LS174T tumors", "experiment": "Protocol 93b: efficacy and biodistribution of CEA-PRIT, LS174T model", "assay_type": "in vivo, mice", "details": "day 22; 30+30 μCi", "protocol": "(§1) The bispecific antibodies were compared side-by-side in single- and double-cycle treatment regimens.\n(§2) Groups A-G represent the treated mice that were followed up for assessment of efficacy, whereas groups H-L comprise mice that were sacrificed for biodistribution purposes 24 h after their last ^212Pb-DOTAM injection.\nFor protocol 93b, mice (age 9 weeks) were injected s.c. into the right flank with 1×10^6 LS174T cells (passage 26) in 100 μL DMEM/Matrigel. Three days after tumor cell injection, mice were sorted into experimental groups with an average tumor volume of 150 mm^3.\n(§3) To minimize re-ingestion of radioactive urine/feces after treatment cycle 1, cages were changed 4 hours after ^212Pb-DOTAM administration, and then again at 24 h p.i. […]\n(§4) The tumor development in the mice was followed through repeated calipering three times a week. […] The body weight of the animals was measured repeatedly in the same fashion. […]\n(§5) Mice in groups H, J, and L were sacrificed and necropsied 24 hours after their first and only injection of ^212Pb-DOTAM; groups I and K were sacrificed and necropsied 24 hours after their second ^212Pb-DOTAM injection. […] Collected samples were weighed and measured for radioactivity, and the percent injected dose per gram of tissue (% ID/g) subsequently calculated, including corrections for decay and background."}, "BxPC3 tumors [1]": {"test_system": "BxPC3 tumors", "experiment": "Protocol 146: ^212Pb-DOTAM biodistribution and absorbed dose estimation after PRIT", "assay_type": "in vivo, SCID mice", "details": "for Mean absorbed dose, RBE = 1 / Mean absorbed dose, RBE = 5: 20 μCi pretargeted ^212Pb-DOTAM, tumor-bearing SCID", "protocol": "Protocol 146 was designed to provide in vivo ^212Pb-DOTAM distribution data after PRIT for estimations of the absorbed radioactive dose to tumor and normal tissues, in SCID mice carrying s.c. BxPC3 tumors. The quenching of ^212Pb-DOTAM was performed using Ca (see example 34).\nPretargeting was performed by injection of CEA-DOTAM BsAb, followed 7 days later by the CA. After 24 hours, the ^212Pb-DOTAM was administered. Groups of mice were sacrificed at multiple time points from 5 minutes to 48 hours after the radioactive injection, and blood and organs harvested for radioactive measurement. Excrements were sampled at selected time points by use of metabolic cages to assess the excretion rate of the radioactive compound. Absorbed doses were finally calculated through established methods using the resulting time-activity curves.\nSolid xenografts were established by s.c. injection of BxPC3 cells into SCID mice (Envigo) aged 8 weeks.\nMice in group E and F were individually housed (i.e. one mouse per cage) in grilled-floor metabolic cages. Urine and feces were collected from each cage 2, 6, and 24 hours after the radioactive injection, and the individual samples subsequently measured for radioactivity. Mice in group F were transferred to a regular cage 24 hours p.i.\nBlood/serum was collected from all mice through retro-orbital bleeding before termination. After euthanasia, the following additional organs and tissues were harvested for radioactivity measurement and calculation of % ID/g: bladder, uterus, small intestine, colon, spleen, pancreas, kidneys, stomach, liver, lung, heart, brain, femoral bone, skin, muscle, abdominal fat, tail, and tumor.\nAbsorbed doses were calculated following the formalism outlined in Pamphlet No. 21 from the Medical Internal Radiation Dose (MIRD) Committee (Bolch W E, Eckerman K F, Sgouros G, and Thomas S R. J Nucl Med 2009; 50:477-484).\nFormally, the absorbed dose D(rT) in a target tissue or region rT is calculated as the time-integral of the activity A(rS, t) multiplied by the absorbed dose rate per unit activity S(rT ←rS), summed over all source regions rS. Given that the vast majority of energy released by the ^212Pb decay chain comes from alpha radiation and furthermore by the much higher biological effectiveness of alpha radiation (as characterized by the relative biological effectiveness, RBE) two approximations were made: • 1. the energy is absorbed locally due to the short range of the alpha particles, which means that only the term S(rT←rT) is considered, and • 2. the contribution from beta and gamma radiation is neglected.\nWith Δα being the energy released by alpha decays, or rather the sum of the mean energies released by alpha decays in the decay chain of ^212Pb, here expressed in units J/(μCi·h), the absorbed dose in a target tissue or region rT is calculated by the formula: […]\nThe calculations are based on the composite (average) decay-corrected radioactive concentration at time t, expressed as [% ID/g]t. In a first step, these are transformed into radioactive concentrations as μCi per kg tissue weight for the target tissue rT:\nA0[μCi]is the injected activity and λ is the exponential decay rate for ^212Pb, 0.0651 h^−1 (corresponding to the 10.6-hour half-life).\nIn a second step, the radioactive concentration was integrated over time for each tissue. This was achieved using the “Linear Log Trapezoidal calculation method” in the pharmacokinetic software Phoenix WinNonlin 6.4 (Certara USA, Inc., 100 Overlook Center, Suite 101, Princeton, NJ 08540 USA). The model type “Plasma” was used with uniform weighting.\nIn the final step, absorbed doses were calculated by multiplying the time integrals of the radioactive concentration by the energy release Δα=170·10^−6J/(μCi·h)."}, "BxPC3 tumors [2]": {"test_system": "BxPC3 tumors", "experiment": "Protocol 93a: efficacy and biodistribution of CEA-PRIT, BxPC3 model", "assay_type": "in vivo, mice", "details": "day 47; 30+30 μCi", "protocol": "as §1, §2\nFor protocol 93a, mice (age 7 weeks) were injected s.c. into the right flank with 5×10^6 BxPC3 cells (passage 33) in 100 μL RPMI/Matrigel. Twelve days after tumor cell injection, mice were sorted into experimental groups with an average tumor volume of 235 mm^3.\nas §3, §4, §5"}}, "data": [{"smiles": "NC(=O)CN1CCN(CC(N)=O)CCN(CC(N)=O)CCN(CC(N)=O)CC1.[212Pb+2]", "note": "[^212Pb-DOTAM]", "values": [{"measurement": "TGI compared with PBS", "setting": "LS174T tumors", "result": 64.7, "unit": "%"}, {"measurement": "accumulation of radioactivity in tumor", "setting": "BxPC3 tumors [1]; 5 minutes after injection, pretargeted by CEA-DOTAM BsAb", "result": 17, "unit": "% ID/g"}, {"measurement": "Mean absorbed dose, RBE = 1", "setting": "BxPC3 tumors [1]; Blood", "result": 0.72, "unit": "Gy"}, {"measurement": "Mean absorbed dose, RBE = 5", "setting": "BxPC3 tumors [1]; Blood", "result": 3.60, "unit": "Gy"}, {"measurement": "Mean absorbed dose, RBE = 1", "setting": "BxPC3 tumors [1]; Brain", "result": 0.04, "unit": "Gy"}, {"measurement": "Mean absorbed dose, RBE = 5", "setting": "BxPC3 tumors [1]; Brain", "result": 0.19, "unit": "Gy"}, {"measurement": "Mean absorbed dose, RBE = 1", "setting": "BxPC3 tumors [1]; Colon", "result": 0.43, "unit": "Gy"}, {"measurement": "Mean absorbed dose, RBE = 1", "setting": "BxPC3 tumors [1]; Femoral bone", "result": 0.27, "unit": "Gy"}, {"measurement": "Mean absorbed dose, RBE = 1", "setting": "BxPC3 tumors [1]; Heart", "result": 0.33, "unit": "Gy"}, {"measurement": "Mean absorbed dose, RBE = 1", "setting": "BxPC3 tumors [1]; Liver", "result": 0.22, "unit": "Gy"}, {"measurement": "Mean absorbed dose, RBE = 1", "setting": "BxPC3 tumors [1]; Muscle", "result": 0.29, "unit": "Gy"}, {"measurement": "Mean absorbed dose, RBE = 1", "setting": "BxPC3 tumors [1]; Pancreas", "result": 0.36, "unit": "Gy"}, {"measurement": "Mean absorbed dose, RBE = 5", "setting": "BxPC3 tumors [1]; Pancreas", "result": 1.80, "unit": "Gy"}, {"measurement": "Mean absorbed dose, RBE = 5", "setting": "BxPC3 tumors [1]; Serum", "result": 8.20, "unit": "Gy"}, {"measurement": "Mean absorbed dose, RBE = 1", "setting": "BxPC3 tumors [1]; Skin", "result": 0.47, "unit": "Gy"}, {"measurement": "Mean absorbed dose, RBE = 1", "setting": "BxPC3 tumors [1]; Small intestine", "result": 0.22, "unit": "Gy"}, {"measurement": "Mean absorbed dose, RBE = 1", "setting": "BxPC3 tumors [1]; Spleen", "result": 0.27, "unit": "Gy"}, {"measurement": "Mean absorbed dose, RBE = 1", "setting": "BxPC3 tumors [1]; Stomach", "result": 0.24, "unit": "Gy"}, {"measurement": "Mean absorbed dose, RBE = 5", "setting": "BxPC3 tumors [1]; Stomach", "result": 1.20, "unit": "Gy"}, {"measurement": "Mean absorbed dose, RBE = 1", "setting": "BxPC3 tumors [1]; Tail", "result": 0.54, "unit": "Gy"}, {"measurement": "Mean absorbed dose, RBE = 1", "setting": "BxPC3 tumors [1]; Uterus", "result": 0.61, "unit": "Gy"}, {"measurement": "tumor growth inhibition (TGI) compared with PBS", "setting": "BxPC3 tumors [2]", "result": 15.8, "unit": "%"}]}]}
